The source of these data is ChEMBL document CHEMBL5120763 (J Nat Prod, 2022).

The source made the active and inactive calls. The calls are words filed in the database; no cut-off is given here.

Series [1] can be described thus: Toxicity in BALB/c nude mouse xenografted with human A549 cells assessed as toxic effect on liver at 1 to 2 mg/kg, ip dosed every 2 days for total of 18 days by H and E staining. It is filed as organism-based. The note with it: in vivo, 432 h, dose 1-2 mg/kg, time 18 day. For orientation: In xenograft studies the graft and the host belong to different species.
Series [2] in a line: Toxicity in BALB/c nude mouse xenografted with human A549 cells assessed as toxic effect on heart at 1 to 2 mg/kg, ip dosed every 2 days for total of 18 days by H and E staining. The format is organism-based. The settings on record: in vivo, dose 1-2 mg/kg.
Series [3] has as its system NCI-H1299. The series can be described thus: Induction of apoptosis in human NCI-H1299 cells at 0.25 to 1 uM incubated for 24 hrs by FITC annexin V/PI double-staining based flow cytometry. It is filed as functional, cell-based. The settings on record: dose 0.25-1 µM, DDE = dose-dependent effect. For orientation: In flow cytometry, cells or beads pass a laser one at a time.

Series [4] can be described thus: Toxicity in BALB/c nude mouse xenografted with human A549 cells assessed as toxic effect on lung at 1 to 2 mg/kg, ip dosed every 2 days for total of 18 days by H and E staining. The note with it: in vivo, 432 h, dose 1-2 mg/kg, time 18 day. It is filed as organism-based.
Series [5] deals with NCI-H1299. Briefly: Induction of apoptosis in human NCI-H1299 cells assessed as increase in cleaved PARP1 levels at 0.25 to 1 uM incubated for 24 hrs by Western blot analysis. It is filed as functional, cell-based. The settings on record: dose 0.25-1 µM. (A western blot detects proteins with antibodies after separation by electrophoresis.)
The test system of series [6] is A549. Briefly: Antitumor activity against human A549 cells xenografted in BALB/c nude mouse assessed as reduction in tumor size at 2 mg/kg, ip dosed every 2 days for total of 18 days. The note with it: time 18.0 day. The format is functional, organism-based.
Series [7] has as its system NCI-H1299. The series can be described thus: Induction of apoptosis in human NCI-H1299 cells assessed as late apoptosis cells level at 1 uM incubated for 24 hrs by FITC annexin V/PI double-staining based flow cytometry (reference value: 4.27%). The format is functional.
In series [8] the test system is PC-9. The series can be described thus: Induction of apoptosis in human PC-9 cells assessed as increase in cleaved PARP1 levels at 0.25 to 1 uM incubated for 48 hrs by Western blot analysis. The format is functional, cell-based. The settings on record: dose 0.25-1 µM.
For series [9], the system named is PC-9. The series can be described thus: Induction of apoptosis in human PC-9 cells assessed as late apoptosis cells level at 1 uM incubated for 48 hrs by FITC annexin V/PI double-staining based flow cytometry (reference value: 2.07%). The format is functional.
The test system of series [10] is PC-9. The series can be described thus: Induction of apoptosis in human PC-9 cells assessed as late apoptosis cells level at 0.5 uM incubated for 48 hrs by FITC annexin V/PI double-staining based flow cytometry (reference value: 2.07%). It is filed as functional.
Series [11] concerns PC-9. The series can be described thus: Induction of apoptosis in human PC-9 cells assessed as late apoptosis cells level at 0.25 uM incubated for 48 hrs by FITC annexin V/PI double-staining based flow cytometry (reference value: 2.07%). The format is functional.
Series [12] deals with A549. Briefly: Increase in cleaved PARP1 protein expression levels in tumor of BALB/c nude mouse xenografted with human A549 cells at 1 to 2 mg/kg, ip dosed every 2 days for total of 18 days by Western blot analysis. The settings on record: dose 1-2 mg/kg, time 18.0 day. It is filed as functional, organism-based.
Series [13] concerns PC-9. Briefly: Induction of apoptosis in human PC-9 cells at 0.25 to 1 uM incubated for 48 hrs by FITC annexin V/PI double-staining based flow cytometry. It is filed as functional, cell-based. The settings on record: dose 0.25-1 µM, DDE = dose-dependent effect.
Series [14] can be described thus: Toxicity in BALB/c nude mouse xenografted with human A549 cells assessed as toxic effect on kidney at 1 to 2 mg/kg, ip dosed every 2 days for total of 18 days by H and E staining. It is filed as organism-based. The note with it: in vivo, 432 h, dose 1-2 mg/kg, time 18 day.
A short description of series [15]: Toxicity in BALB/c nude mouse xenografted with human A549 cells assessed as induction of body weight loss at 1 to 2 mg/kg, ip dosed every 2 days for total of 18 days. The format is organism-based. The settings on record: in vivo, 432 h, dose 1-2 mg/kg, time 18 day.
Series [16] deals with PC-9. The series can be described thus: Induction of apoptosis in human PC-9 cells assessed as reduction in Bcl2 levels at 0.25 to 1 uM incubated for 48 hrs by Western blot analysis. It is filed as functional, cell-based. The note with it: dose 0.25-1 µM.
Series [17] deals with NCI-H1299. Briefly: Induction of apoptosis in human NCI-H1299 cells assessed as late apoptosis cells level at 0.25 uM incubated for 24 hrs by FITC annexin V/PI double-staining based flow cytometry (reference value: 4.27%). The format is functional.
Series [18] deals with NCI-H1299. The series can be described thus: Induction of apoptosis in human NCI-H1299 cells assessed as late apoptosis cells level at 0.5 uM incubated for 24 hrs by FITC annexin V/PI double-staining based flow cytometry (reference value: 4.27%). It is filed as functional.
Series [19] concerns NCI-H1299. Briefly: Induction of apoptosis in human NCI-H1299 cells assessed as reduction in Bcl2 levels at 0.25 to 1 uM incubated for 24 hrs by Western blot analysis. It is filed as functional, cell-based. The note with it: dose 0.25-1 µM.

On to `C[C@]12CC[C@H](O)C[C@@]1(O)CC[C@@H]1[C@@H]2CC[C@]2(C)[C@@H](c3ccc(=O)oc3)CC[C@]12O` [TELOCINOBUFAGIN], for which the Activity entry in [1] was “Non-Toxic”; in [2] it was “Non-Toxic”; in the series on NCI-H1299 [3] it was “Dde”; in series [4], “Non-Toxic”; in the series on NCI-H1299 [7], 38.41%; in the series with PC-9 [9], 22.7%. Further, the Activity with PC-9 [10] was 11.37%; with PC-9 [11], 6.66%; in the series with PC-9 [13] it was “Dde”; in series [14] it was “Non-Toxic”; in series [15] it was “Non-Toxic”; in the series with NCI-H1299 [17], 16.98%. Also, the Activity in the series on NCI-H1299 [18] turned out to be 25.06%. The outcome in the series on NCI-H1299 [5], in the series with A549 [6], in the series on PC-9 [8], in the series on A549 [12], in the series on PC-9 [16] and in the series on NCI-H1299 [19] was Active.
